Experimental data: ChEMBL document CHEMBL5154942, “Discovery of Clinical Candidate NTQ1062 as a Potent and Bioavailable Akt Inhibitor for the Treatment of Human Tumors” (J Med Chem, 2022)
Active and inactive are the calls of the source. No cut-off for these calls is given here.

Legend:
[1] = Metabolic stability in Sprague-Dawley rat liver microsomes assessed as parent compound remaining at 1 uM measured after 60 mins by UPLC-MS/MS analysis; assay type: ADME, Microsome; details: read-out: Stability
[2] = test system: LNCaP; test: Induction of apoptosis in human LNCaP cells assessed as apoptotic cells incubated for 72 hrs by annexin V/PI double staining based flow cytometry method; assay type: functional, cell-based; details: dose 0.62-2.5 µM, DDE = dose-dependent effect
[3] = Cmax in NCG mouse xenografted with human LNCaP cells at 50 mg/kg administered once daily for 18 to 21 days and measured upto 10 hrs post last dose by LC-MS/MS analysis; assay type: ADME, organism-based; set-up: dose 50 mg/kg, time 18-21 day; details: in vivo
[4] = Metabolic stability in Crab eating monkey liver microsomes assessed as parent compound remaining at 1 uM measured after 60 mins by UPLC-MS/MS analysis; assay type: ADME, Macaca fascicularis, Microsome; details: cynomolgus monkey, read-out: Stability
[5] = Apparent volume of distribution at steady state in crab-eating monkey at 3 mg/kg, iv measured upto 24 hrs by UPLC-MS/MS analysis; assay type: ADME, organism-based, Macaca fascicularis; details: cynomolgus monkey, in vivo, read-out: Vdss(app)
[6] = AUC (0 to t) in Sprague-Dawley rat at 10 mg/kg, ig by UPLC-MS/MS analysis; assay type: ADME, organism-based; set-up: dose 10 mg/kg, route ig; details: in vivo, po
[7] = Bioavailability in Sprague-Dawley rat at 10 mg/kg, ig by UPLC-MS/MS analysis; assay type: ADME, organism-based; details: in vivo, po
[8] = Half life in Sprague-Dawley rat at 10 mg/kg, ig by UPLC-MS/MS analysis; assay type: ADME, organism-based; details: in vivo, po
[9] = test system: LNCaP; test: Induction of apoptosis in human LNCaP cells assessed as viable cells at 1.25 uM incubated for 72 hrs by annexin V/PI double staining based flow cytometry method (reference value: 93.63 %); assay type: functional; details: read-out: Activity
[10] = test system: LNCaP; test: In vivo inhibition of AKT in human LNCaP cells xenografted in NCG mouse assessed as reduction in GSK-3beta phosphorylation at 25 to 50 mg/kg administered for 21 days and measured after 4 hrs post last dose by Western blot analysis; assay type: functional, organism-based; details: dose lower […], dose upper 50.0 mg/kg, time 21.0 day
[11] = biological target: Ribosomal protein S6 kinase alpha-4 (Homo sapiens) (UniProt O75676); test: Inhibition of MSK2 (unknown origin) at 1 uM in presence of ATP at Km concentration by mobility shift assay relative to control
[12] = biological target: T1, Cytochrome P450 1A2 (Homo sapiens, UniProt P05177); test: Inhibition of CYP1A2 in human liver microsomes at 0.01 to 30 uM […] in presence of NADPH by UPLC-MS/MS analysis; assay type: ADME, Microsome
T1 sequence (P05177 whole entry): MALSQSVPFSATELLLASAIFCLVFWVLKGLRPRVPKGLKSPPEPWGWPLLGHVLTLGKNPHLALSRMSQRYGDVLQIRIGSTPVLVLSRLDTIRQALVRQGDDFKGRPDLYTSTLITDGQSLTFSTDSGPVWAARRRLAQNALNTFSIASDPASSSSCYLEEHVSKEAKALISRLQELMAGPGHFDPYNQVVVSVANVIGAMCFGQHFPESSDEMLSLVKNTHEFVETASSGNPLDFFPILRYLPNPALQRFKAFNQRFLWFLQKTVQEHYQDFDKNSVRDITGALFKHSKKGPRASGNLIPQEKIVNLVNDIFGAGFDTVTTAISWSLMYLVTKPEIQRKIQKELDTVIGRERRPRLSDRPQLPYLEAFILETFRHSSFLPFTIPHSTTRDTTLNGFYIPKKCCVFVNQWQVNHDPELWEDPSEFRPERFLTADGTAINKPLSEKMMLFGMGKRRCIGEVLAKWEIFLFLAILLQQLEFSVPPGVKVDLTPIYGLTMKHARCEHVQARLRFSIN

[13] = test system: LNCaP; test: Induction of apoptosis in human LNCaP cells assessed as late apoptotic cells at 1.25 uM incubated for 72 hrs by annexin V/PI double staining based flow cytometry method (reference value: 2.75 %); assay type: functional
[14] = Metabolic stability in Crab eating monkey liver microsomes assessed hepatic clearance at 1 uM measured after 60 mins by LC-MS/MS analysis; assay type: ADME, Macaca fascicularis, Microsome; details: cynomolgus monkey, 1 h
[15] = test system: LNCaP; test: Induction of cell cycle arrest in human LNCap cells assessed as accumulation at G0/G1 phase at 0.2 uM incubated for 24 hrs by flow cytometry (reference value: 58.60 %); assay type: functional
[16] = Oral bioavailability in overnight fasted ICR mouse at 10 mg/kg measured upto 24 hrs by UPLC-MS/MS analysis; assay type: ADME, organism-based; details: in vivo
[17] = AUC (0 to infinity) in crab-eating monkey at 3 mg/kg, iv measured upto 24 hrs by UPLC-MS/MS analysis; assay type: ADME, organism-based, Macaca fascicularis; set-up: dose 3 mg/kg, time < 24 hrs, route iv; details: cynomolgus monkey, in vivo
[18] = AUC (0 to t) in crab-eating monkey at 3 mg/kg, iv measured upto 24 hrs by UPLC-MS/MS analysis; assay type: ADME, organism-based, Macaca fascicularis; set-up: dose 3 mg/kg, time < 24 hrs, route iv; details: cynomolgus monkey, in vivo
[19] = biological target: Cytochrome P450 2D6 (Homo sapiens, UniProt P10635); test: Inhibition of CYP2D6 in human liver microsomes at 0.01 to 30 uM using dextromethorphan as substrate in presence of NADPH by UPLC-MS/MS analysis; assay type: ADME, Microsome
[20] = Cmax in Sprague-Dawley rat at 10 mg/kg, ig by UPLC-MS/MS analysis; assay type: ADME, organism-based; set-up: dose 10 mg/kg, route ig; details: in vivo, po
[21] = Metabolic stability in Crab eating monkey liver microsomes assessed as half life at 1 uM measured after 60 mins by LC-MS/MS analysis; assay type: ADME, Macaca fascicularis, Microsome; details: cynomolgus monkey
[22] = test system: LNCaP; test: Induction of apoptosis in human LNCaP cells assessed as early apoptotic cells at […] incubated for 72 hrs by annexin V/PI double staining based flow cytometry method (reference value: […]); assay type: functional
[23] = Metabolic stability in Sprague-Dawley rat liver microsomes assessed hepatic clearance at 1 uM measured after 60 mins by LC-MS/MS analysis; assay type: ADME, Microsome; details: 1 h
[24] = test system: LNCaP; test: Antitumor activity against human LNCaP cells xenografted in NCG mouse assessed as tumor growth inhibition at 12.5 mg/kg administered once daily for 18 to 21 days relative to control; assay type: functional; details: time 18-21 day, read-out: TGI
[25] = Metabolic stability in CD-1 mouse liver microsomes assessed as parent compound remaining at 1 uM measured after 60 mins by UPLC-MS/MS analysis; assay type: ADME, Microsome; details: read-out: Stability
[26] = biological target: Protein kinase C alpha type (Homo sapiens) (UniProt P17252); test: Inhibition of PKCalpha (unknown origin) at 1 uM in presence of ATP at Km concentration by mobility shift assay relative to control
[27] = Apparent volume of distribution at steady state in Sprague-Dawley rat at 5 mg/kg, iv measured upto 24 hrs by UPLC-MS/MS analysis; assay type: ADME, organism-based; details: in vivo, read-out: Vdss(app)
[28] = biological target: Protein kinase C theta type (Homo sapiens) (UniProt Q04759); test: Inhibition of PKCtheta (unknown origin) at 1 uM in presence of ATP at Km concentration by mobility shift assay relative to control
[29] = Metabolic stability in Beagle dog liver microsomes assessed as parent compound remaining at 1 uM measured after 60 mins by UPLC-MS/MS analysis; assay type: ADME, Canis lupus familiaris, Microsome; details: read-out: Stability
[30] = AUC (0 to infinity) in crab-eating monkey at 6 mg/kg, ig by UPLC-MS/MS analysis; assay type: ADME, organism-based, Macaca fascicularis; set-up: time infinity, dose 6 mg/kg, route ig; details: cynomolgus monkey, in vivo, po

Sequence of Ribosomal protein S6 kinase alpha-4 (Homo sapiens) (O75676 whole entry, looked up): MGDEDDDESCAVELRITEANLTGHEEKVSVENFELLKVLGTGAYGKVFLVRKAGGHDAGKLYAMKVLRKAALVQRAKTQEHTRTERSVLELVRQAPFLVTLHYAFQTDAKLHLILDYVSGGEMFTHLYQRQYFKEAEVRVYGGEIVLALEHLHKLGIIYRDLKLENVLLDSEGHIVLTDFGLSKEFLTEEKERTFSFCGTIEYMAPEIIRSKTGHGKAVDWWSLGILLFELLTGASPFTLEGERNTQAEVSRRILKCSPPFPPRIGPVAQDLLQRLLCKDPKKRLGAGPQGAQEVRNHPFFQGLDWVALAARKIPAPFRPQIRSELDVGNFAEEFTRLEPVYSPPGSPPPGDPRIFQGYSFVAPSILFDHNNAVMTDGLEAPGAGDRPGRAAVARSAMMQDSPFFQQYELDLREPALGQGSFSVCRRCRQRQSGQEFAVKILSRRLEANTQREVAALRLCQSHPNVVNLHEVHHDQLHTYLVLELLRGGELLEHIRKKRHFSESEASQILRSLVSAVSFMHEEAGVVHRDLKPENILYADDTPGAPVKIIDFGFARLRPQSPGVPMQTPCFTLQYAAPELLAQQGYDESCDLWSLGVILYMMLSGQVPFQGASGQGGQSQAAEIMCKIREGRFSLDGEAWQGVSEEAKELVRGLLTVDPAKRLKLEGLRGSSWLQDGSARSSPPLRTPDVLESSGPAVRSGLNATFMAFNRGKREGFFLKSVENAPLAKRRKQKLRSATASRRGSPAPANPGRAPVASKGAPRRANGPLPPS
Sequence of Protein kinase C theta type (Homo sapiens) (Q04759 whole entry, looked up): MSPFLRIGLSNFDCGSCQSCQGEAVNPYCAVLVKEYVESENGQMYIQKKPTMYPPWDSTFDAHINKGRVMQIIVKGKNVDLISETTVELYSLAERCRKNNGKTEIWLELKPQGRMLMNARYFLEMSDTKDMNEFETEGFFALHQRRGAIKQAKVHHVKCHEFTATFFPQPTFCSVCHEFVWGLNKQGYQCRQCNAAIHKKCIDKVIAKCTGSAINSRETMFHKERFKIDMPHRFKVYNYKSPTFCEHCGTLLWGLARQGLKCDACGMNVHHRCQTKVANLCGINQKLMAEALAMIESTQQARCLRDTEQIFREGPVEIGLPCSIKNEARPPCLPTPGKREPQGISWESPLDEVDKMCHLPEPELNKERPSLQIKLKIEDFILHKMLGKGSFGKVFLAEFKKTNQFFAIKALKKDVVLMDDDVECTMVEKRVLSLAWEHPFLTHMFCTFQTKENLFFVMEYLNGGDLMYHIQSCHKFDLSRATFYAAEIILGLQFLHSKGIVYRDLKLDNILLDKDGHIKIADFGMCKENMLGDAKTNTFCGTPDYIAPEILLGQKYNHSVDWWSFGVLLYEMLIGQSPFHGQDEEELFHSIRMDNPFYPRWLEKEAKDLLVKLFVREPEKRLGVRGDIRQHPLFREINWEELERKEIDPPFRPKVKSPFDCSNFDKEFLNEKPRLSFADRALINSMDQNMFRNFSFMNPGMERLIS
Sequence of Cytochrome P450 2D6 (P10635 whole entry): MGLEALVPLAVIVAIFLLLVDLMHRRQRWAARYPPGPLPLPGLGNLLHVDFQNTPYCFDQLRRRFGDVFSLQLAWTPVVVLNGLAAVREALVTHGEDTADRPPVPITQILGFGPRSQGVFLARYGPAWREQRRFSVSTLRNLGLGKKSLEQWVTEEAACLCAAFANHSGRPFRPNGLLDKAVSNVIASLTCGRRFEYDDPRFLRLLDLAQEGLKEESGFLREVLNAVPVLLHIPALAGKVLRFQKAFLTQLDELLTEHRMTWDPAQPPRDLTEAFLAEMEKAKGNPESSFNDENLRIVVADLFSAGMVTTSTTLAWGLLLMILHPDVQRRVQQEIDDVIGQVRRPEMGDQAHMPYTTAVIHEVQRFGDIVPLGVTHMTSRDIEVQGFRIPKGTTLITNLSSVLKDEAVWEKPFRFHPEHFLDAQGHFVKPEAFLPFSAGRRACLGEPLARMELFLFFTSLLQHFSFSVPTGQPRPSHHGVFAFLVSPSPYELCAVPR

Which remaining at 1 h, 1 µM [1] does the source give for `CC(C)NC[C@@H](C(=O)N1CCN(c2ncnc3c2[C@H](C)CC(=O)N3)[C@H]2C[C@H]21)c1ccc(Cl)cc1` here?
The remaining at 1 h, 1 µM was 88.8%.

And the Activity [2]?
The Activity was “Dde”.

What about the Cmax [3] of the same compound?
Its Cmax is 3050 ng/mL.

And the remaining at 1 h, 1 µM [4]?
Its remaining at 1 h, 1 µM is 23.1%.

What about the Vd [5] of the same compound?
Its Vd is 8.36 L/kg.

And the AUC(0-t) [6]?
Its AUC(0-t) is 3880 ng·h/mL.

What about the bioavailability [7] of the same compound?
Its bioavailability is 110%.

What about the half-life [8] of the same compound?
The half-life was 3.28 h.

And the viability at 1.25 µM [9]?
Its viability at 1.25 µM is 69.8%.

What about the Activity [10] of the same compound?
The Activity was “Active”.

And the inhibition [11]?
The inhibition was 90%.

And the IC50 [12]?
Its IC50 is over 50 µM.

And the Activity [13]?
The Activity was 12.65%.

What about the CLH [14] of the same compound?
Its CLH is 0.0252 mL/min/kg.

And the Activity [15]?
Its Activity is 82.42%.

What about the bioavailability [16] of the same compound?
The bioavailability was 29.7%.

What about the AUC(0-inf) [17] of the same compound?
The AUC(0-inf) was 1880 ng·h/mL.

What about the AUC(0-t) at 24 h [18] of the same compound?
Its AUC(0-t) at 24 h is 1780 ng·h/mL.

And the IC50 [19]?
Its IC50 is 20.6 µM.

And the Cmax [20]?
Its Cmax is 705 ng/mL.

And the half-life at 1 µM [21]?
Its half-life at 1 µM is 0.472 h.

What about the Activity ([22]; dose 0.62 µM) of the same compound?
Its Activity is 6.55%.

What about the Activity ([22]; dose 2.5 µM) of the same compound?
Its Activity is 22.54%.

What about the CLH [23] of the same compound?
Its CLH is under 12.2 mL/min/kg.

And the inhibition in vivo at 12.5 mg/kg [24]?
The inhibition in vivo at 12.5 mg/kg was 84.1%.

And the remaining at 1 h, 1 µM [25]?
Its remaining at 1 h, 1 µM is 92.3%.

And the inhibition [26]?
Its inhibition is 90%.

What about the Vd [27] of the same compound?
The Vd was 7.76 L/kg.

And the inhibition [28]?
The inhibition was 90%.

And the remaining at 1 h, 1 µM [29]?
Its remaining at 1 h, 1 µM is 53.6%.

What about the AUC(0-inf) [30] of the same compound?
The AUC(0-inf) was 1680 ng·h/mL.
